In patent publication US20180057505A1, “BICYCLIC HETEROARYL COMPOUNDS USEFUL AS INHIBITORS OF THE PAR-2 SIGNALING PATHWAY” (VERTEX PHARMACEUTICALS INCORPORATED, priority 2015, published 2018):

Legend:
Type in all cases: cell-based
PAR2 (HT-29 cells) [1] = target: T1, PAR2 (HT-29 cells) (Homo sapiens, UniProt P55085); assay: Ca FLIPR TETRA assay, ANTAGONIST mode, activator 8 μM SLIGKV; conditions: for IC50: HT-29 cells, activator 8 μM SLIGKV, maximal antagonist concentration per Method (A: 0.1, 1 or 2 μM; B: 50 μM); for SLIGKV, % @ 50: @ 50 (μM)
T1 construct: host or cells: HT-29
T1 sequence (P55085 26-397): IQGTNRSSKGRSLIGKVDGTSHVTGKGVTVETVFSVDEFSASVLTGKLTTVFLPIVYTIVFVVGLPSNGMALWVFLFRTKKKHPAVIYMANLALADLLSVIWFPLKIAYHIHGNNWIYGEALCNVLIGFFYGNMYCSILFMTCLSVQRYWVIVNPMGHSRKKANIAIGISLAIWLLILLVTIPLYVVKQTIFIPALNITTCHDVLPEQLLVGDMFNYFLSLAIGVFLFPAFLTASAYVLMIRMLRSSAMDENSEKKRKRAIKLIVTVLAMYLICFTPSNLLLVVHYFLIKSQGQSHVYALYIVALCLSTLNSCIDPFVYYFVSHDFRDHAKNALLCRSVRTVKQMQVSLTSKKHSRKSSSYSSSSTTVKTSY
Description: (§1) Protocol for Testing PAR2 Compounds in ANTAGONIST Mode Using the Ca FLIPR^TETRA Assay (384 Well).
(§2) 23000 HT-29 cells (ATCC# HTB-38) were plated in 384-well black, transparent-flat bottom plates and incubated in 25 uL of 1% FBS/McCoy's media ON at 37° C. under an atmosphere of 5% CO2. The following day, 25 uL FLIPR calcium 5 Molecular Devices assay reagent (Cat: R-8186) was added. Plates were incubated at 37° C. and r. t. for 45 min and 15 min, respectively. Compounds dilutions were prepared in 100% DMSO using a Biomek FX and diluted 20-fold in HBSS and then 5.5 uL was added directly to the cells by the FLIPR^TETRA (10× dilution) using FLIPR Tetra Pipette tips, black, non-sterile, 384 Molecular Devices (Cat: 9000-0764).
(§3) A first read was performed to determine whether the test compounds on their own can activate Ca^2+ responses. The cells were incubated with the compounds for 30 min at r. t. and then read in ANTAGONIST mode in the same plate by stimulating with 6.2 uL of a fixed concentration of the activator: final concentrations 8 μM SLIGKV, 1 U/mL Thrombin, 3.1 U/mL trypsin, or 0.6 μM UTP.

PAR2 (HT-29 cells) [2] = target: T1, PAR2 (HT-29 cells); assay: Ca FLIPR TETRA assay, ANTAGONIST mode, activator 3.1 U/mL trypsin; conditions: for IC50: HT-29 cells, activator 3.1 U/mL trypsin, maximal antagonist concentration per Method (A: 0.1, 1 or 2 μM; B: 50 μM); for Trypsin, % @ 50: @ 50 (μM)
Description: as §1, §2, §3

[3] = test system: Thrombin-stimulated Ca2+ response in HT-29 cells; assay: Ca FLIPR TETRA assay, ANTAGONIST mode, activator 1 U/mL Thrombin; conditions: for IC50: HT-29 cells, activator 1 U/mL Thrombin
Description: as §1, §2, §3

[4] = test system: UTP-stimulated Ca2+ response in HT-29 cells; assay: Ca FLIPR TETRA assay, ANTAGONIST mode, activator 0.6 μM UTP; conditions: for IC50: HT-29 cells, activator 0.6 μM UTP
Description: as §1, §2, §3

| Compound | IC50 (PAR2 (HT-29 cells) [1]) | IC50 (PAR2 (HT-29 cells) [2]) | IC50 ([3]; Homo sapiens) | IC50 ([4]; Homo sapiens) | SLIGKV, % @ 50 (PAR2 (HT-29 cells) [1]) | Trypsin, % @ 50 (PAR2 (HT-29 cells) [2]) | IC50 [3] | IC50 [4] | Thrombin, % @ 50 ([3]; @ 50 (μM)) | inhibition at 50 µM ([4]; Homo sapiens, HT-29, @ 50 (μM)) |
| --- | --- | --- | --- | --- | --- | --- | --- | --- | --- | --- |
| CC(C)c1cc(-c2ccc(F)cc2)nc2cc(C(=O)N3CCN(C(=O)c4ccn[nH]4)CC3(C)C)oc12 [Example I-65] | 0.01 µM | 0.016 µM | 2.7 µM | 2.8 µM | – | – | – | – | – | – |
| CO[C@@H](C(=O)N1CCN(C(=O)c2cc3nc(-c4ccc(F)cc4)cc(C(C)C)c3o2)C(C)(C)C1)c1ccccc1 [Example I-66] | 0.013 µM | 0.015 µM | > 50 µM | > 50 µM | – | – | – | – | – | – |
| CC(Oc1ccccc1)C(=O)N1CCN(C(=O)c2cc3nc(-c4ccc(F)cc4)cc(C(C)C)c3o2)C(C)(C)C1 (stereo not shown) [Example I-67] | 0.0052 µM | 0.0074 µM | > 50 µM | > 50 µM | – | – | – | – | – | – |
| CC(C)c1cc(-c2ccc(F)cc2)nc2cc(C(=O)N3CCN(C(=O)C(C)(O)C(F)(F)F)CC3(C)C)oc12 (stereo not shown) [Example I-68] | 0.01 µM | 0.026 µM | 29 µM | 21 µM | – | – | – | – | – | – |
| CCC(O)(CC)C(=O)N1CCN(C(=O)c2cc3nc(-c4ccc(F)cc4)cc(C(C)C)c3o2)C(C)(C)C1 [Example I-69] | 0.032 µM | 0.052 µM | 37 µM | > 32 µM | – | – | – | – | – | – |
| CC(C)c1cc(-c2ccc(F)cc2)nc2cc(C(=O)N3CCN(C(=O)C4(O)CC4)CC3(C)C)oc12 [Example I-70] | 0.017 µM | 0.023 µM | 15 µM | 16 µM | – | – | – | – | – | – |
| CC(C)c1cc(-c2ccc(F)cc2)nc2cc(C(=O)N3CCN(C(=O)C4CCCC4)CC3(C)C)oc12 [Example I-71] | 0.0026 µM | 0.0047 µM | 35 µM | 36 µM | – | – | – | – | – | – |
| CC(C)c1cc(-c2ccc(F)cc2)nc2cc(C(=O)N3CCN(C(=O)C4CC4(F)F)CC3(C)C)oc12 (stereo not shown) [Example I-72] | 0.0023 µM | 0.0031 µM | 14 µM | 13 µM | – | – | – | – | – | – |
| CC(C)c1cc(-c2ccc(F)cc2)nc2cc(C(=O)N3CCN(C(=O)c4ccon4)CC3(C)C)oc12 [Example I-73] | 0.0024 µM | 0.0042 µM | 8.5 µM | 17 µM | – | – | – | – | – | – |
| CC(C)c1cc(-c2ccc(F)cc2)nc2cc(C(=O)N3CCN(C(=O)[C@H](O)C(C)C)CC3(C)C)oc12 [Example I-74] | 0.0053 µM | 0.0077 µM | 11 µM | 13 µM | – | – | – | – | – | – |
| CC(C)c1cc(-c2ccc(F)cc2)nc2cc(C(=O)N3CCN(C(=O)[C@H]4CCCO4)CC3(C)C)oc12 [Example I-75] | 0.024 µM | 0.14 µM | 31 µM | 23 µM | – | – | – | – | – | – |
| CC(C)c1cc(-c2ccc(F)cc2)nc2cc(C(=O)N3CCN(C(=O)OC(C)(C)C)CC3)oc12 [Example I-77] | – | 23 µM | > 50 µM | > 50 µM | 64% @ 50 | – | – | – | – | – |
| CC(C)c1cc(-c2ccc(F)cc2)nc2cc(C(=O)N3CCN(C(=O)OC(C)(C)C)C[C@H]3C)oc12 [Example I-78] | – | – | – | – | 70% @ 50 | 65% @ 50 | > 50 µM | > 50 µM | – | – |
| CC(C)c1cc(-c2ccc(F)cc2)nc2cc(C(=O)N3CCN(C(=O)OC(C)(C)C)C[C@@H]3C)oc12 [Example I-79] | 1.7 µM | – | – | > 50 µM | – | 60% @ 50 | – | – | 26% @ 50 | – |
| CC(C)c1cc(-c2ccc(F)cc2)nc2cc(C(=O)N3CCN(C(=O)C4CCOC4)[C@@H](C)C3)oc12 (stereo partly shown) [Example I-80] | 1.6 µM | 4.7 µM | 19 µM | 20 µM | – | – | – | – | – | – |
| CC(C)c1cc(-c2ccc(F)cc2)nc2cc(C(=O)N3CCN(C(=O)C4CCCC4)[C@@H](C)C3)oc12 [Example I-81] | 0.022 µM | – | > 50 µM | – | – | 66% @ 50 | – | – | – | 46% |
